Assay: hydroxyapatite (HA) binding in vitro study (bone mineral affinity)
Protocol: To evaluate the bone mineral affinity of the GLP-1 conjugate described in Example 1, hydroxyapatite (HA) binding in vitro studies were conducted. Briefly, 10 μg of GLP-1 or equivalent amount of GLP-1 conjugate was mixed with 5 mg of HA powder in 500 μL of the binding buffer with various concentrations (double-distilled water (D.D.), 10 mM PBS [pH 7.4], 50 mM PBS [pH 7.4], acetate buffer [pH 4]) . Similarly, tubes containing an equivalent amount of GLP-1 or GLP-1 conjugate in corresponding buffers without HA were used as a negative control. Mixtures were shaken gently at room temperature for 1 hour and then were centrifuged at 10,000 g for 5 minutes. The supernatant was separated and assayed for unbound drug, using a fluorescence spectrometer (λEx 215 nm, λEm 305 nm). The percentage of HA binding was calculated as:
(Intensity of control−the intensity of supernatants)/Intensity of control×100%
Each experiment was measured in triplicate.

effect of pH and phosphate ion concentration on HA binding capacity (acidic pH (Acetate buffer pH 4 vs PBS pH 7.4) and lower buffer concentration (10 mM vs 50 mM)): higher binding
Substance: H-HAE GTF TSD VSS YLE GQA A-K(Mal-PEGn-BP)-E FIA WLV KGR —NH2 [GLP-1 conjugate]
binding capacity to HA compared with plain GLP-1 peptide (various medium (D.D. water, 10 mM PBS pH 7.4, 50 mM PBS pH 7.4, acetate buffer pH 4), 5 mg HA, 1 hour, room temperature, p<0.01): significantly different binding capacity to HA

— patent publication US20210187077A1, “GLP-1 Agonist Conjugates for Sustained Glycemic Control” (IDAHO STATE UNIVERSITY, priority 2019, published 2021)
